Experimental data as given in ChEMBL document CHEMBL5360653, “Marine Alkaloid Lepadins E and H Induce Ferroptosis for Cancer Chemotherapy” (J Med Chem, 2023).
Calls of active or inactive are those of the source. The rule behind the calls is not given here.

Tests used:
HeLa [1] = experiment: Cytotoxicity against human HeLa cells assessed as increase in cell viability pretreated with DFO for 4 hrs followed by compound addition at 10 uM for 24 hrs; format: functional, cell-based
[2] = Toxicity in immunocompetent C57BL/6J mouse allografted with B16-F10 cells assessed as change of organ index in heart administered at 30 mg/kg, ip daily for 14 days by hematoxylin and eosin staining analysis; format: organism-based; conditions: in vivo, 336 h, time 14 day
HeLa [3] = experiment: Induction of apoptosis in human HeLa cells assessed as apoptotic cells incubated at 10 uM for 24 hrs measured by annexin V-PI staining based FITC analysis (Rvb ~ 5%); format: functional
HeLa [4] = experiment: Induction of apoptosis in human HeLa cells assessed as necrotic cells incubated at 4 uM for 24 hrs measured by annexin V-PI staining based FITC analysis (reference value: 0.70%); format: functional
HeLa [5] = experiment: Induction of apoptosis in human HeLa cells assessed as viable cells incubated at 6 uM for 24 hrs measured by annexin V-PI staining based FITC analysis (reference value: 93.9%); format: functional; conditions: read-out: Activity
SMMC-7721 = experiment: Cytotoxicity against human SMMC-7721 cells incubated for 72 hrs by MTT assay; format: functional, cell-based; conditions: SMMC-7721, 72 h
SK-OV-3 = experiment: Cytotoxicity against human SK-OV-3 cells incubated for 72 hrs by MTT assay; format: functional, cell-based; conditions: SK-OV-3, 72 h
HeLa [6] = experiment: Induction of ROS generation in human HeLa cells assessed as increase in ROS level; format: functional, cell-based; conditions: dose 4-10 µM
HeLa [7] = experiment: Induction of apoptosis in human HeLa cells assessed as necrotic cells incubated at 8 uM for 24 hrs measured by annexin V-PI staining based FITC analysis (reference value: 0.70%); format: functional
HeLa [8] = experiment: Induction of apoptosis in human HeLa cells assessed as late apoptotic cells preincubated with PFTalpha followed by compound addition at 10 uM for 24 hrs measured by annexin V-PI staining based FITC analysis (reference value: 2.3%); format: functional
NCI-H1155 = experiment: Cytotoxicity against human NCI-H1155 cells incubated for 72 hrs by MTT assay; format: functional, cell-based; conditions: NCI-H1155, 72 h
HeLa [9] = experiment: Inhibition of colony formation in human HeLa cells treated at 9 uM for 24 hrs measured by paraformaldehyde based crystal violet staining analysis; format: functional, cell-based
HeLa [10] = experiment: Inhibition of colony formation in human HeLa cells treated upto 6 uM for 24 hrs measured by paraformaldehyde based crystal violet staining analysis; format: functional, cell-based
HeLa [11] = experiment: Inhibition of colony migration in human HeLa cells treated for 24 hrs measured by paraformaldehyde based crystal violet staining analysis; format: functional, cell-based; conditions: dose 0.625-10 µM
HeLa [12] = experiment: Effect on lipid peroxidation in human HeLa cells measured at 10 to 12 uM for 4 hrs by C11-BODIPY581/591 staining based flow cytometric analysis relative to control; format: functional; conditions: dose 10-12 µM
HeLa [13] = experiment: Induction of apoptosis in human HeLa cells assessed as increase in cleaved PARP expression level at 10 uM by immunoblotting analysis; format: functional, cell-based
L02 = experiment: Cytotoxicity against human L02 cells incubated for 72 hrs by MTT assay; format: functional, cell-based; conditions: L02, 72 h
HeLa [14] = experiment: Cytotoxicity against human HeLa cells assessed as increase in cell viability pretreated with NAC for 1 hr followed by compound addition at 2.5 to 20 uM for 24 hrs relative to control; format: functional; conditions: dose 2.5-20 µM
HeLa [15] = experiment: Induction of apoptosis in human HeLa cells assessed as viable cells incubated at 8 uM for 24 hrs measured by annexin V-PI staining based FITC analysis (reference value: 93.9%); format: functional; conditions: read-out: Activity
HeLa [16] = experiment: Induction of apoptosis in human HeLa cells assessed as late apoptotic cells incubated at 10 uM for 24 hrs measured by annexin V-PI staining based FITC analysis (reference value: 2.3%); format: functional
HeLa [17] = experiment: Induction of ROS generation in human HeLa cells assessed as increase in ROS level at 10 uM incubated for 1 hrs (reference value: 39.6%); format: functional
HepG2 = experiment: Cytotoxicity against human HepG2 cells incubated for 72 hrs by MTT assay; format: functional, cell-based; conditions: HepG2, 72 h
HeLa [18] = experiment: Induction of apoptosis in human HeLa cells assessed as viable cells incubated at 10 uM for 24 hrs measured by annexin V-PI staining based FITC analysis (reference value: 93.9%); format: functional; conditions: read-out: Activity
HeLa [19] = experiment: Induction of ROS generation in human HeLa cells assessed as increase in ROS level at 10 uM incubated for 0.5 hrs (reference value: 39.6%); format: functional
[20] = Toxicity in immunocompetent C57BL/6J mouse allografted with B16-F10 cells assessed as tissue damage in heart administered at 30 mg/kg, ip daily for 14 days by hematoxylin and eosin staining analysis; format: organism-based; conditions: in vivo, 336 h, time 14 day
HeLa [21] = experiment: Induction of apoptosis in human HeLa cells assessed as viable cells incubated at 4 uM for 24 hrs measured by annexin V-PI staining based FITC analysis (reference value: 93.9%); format: functional; conditions: read-out: Activity
HeLa [22] = experiment: Inhibition of colony formation in human HeLa cells treated for 24 hrs measured by paraformaldehyde based crystal violet staining analysis; format: functional, cell-based; conditions: dose 5-9 µM
MDA-MB-231 = experiment: Cytotoxicity against human MDA-MB-231 cells incubated for 72 hrs by MTT assay; format: functional, cell-based; conditions: MDA-MB-231, 72 h
HeLa [23] = experiment: Upregulation of p53 expression in human HeLa cells measured at 4 to 10 uM for 24 hrs by Western blotting analysis; format: functional, cell-based; conditions: dose 4-10 µM
MCF7 = experiment: Cytotoxicity against human MCF7 cells incubated for 72 hrs by MTT assay; format: functional, cell-based; conditions: MCF7, 72 h
HeLa [24] = experiment: Induction of apoptosis in human HeLa cells assessed as necrotic cells preincubated with PFTalpha followed by compound addition at 10 uM for 24 hrs measured by annexin V-PI staining based FITC analysis (reference value: 0.79%); format: functional
HeLa [25] = experiment: Upregulation of p21 expression in human HeLa cells measured at 4 to 10 uM for 24 hrs by Western blotting analysis; format: functional, cell-based; conditions: dose 4-10 µM
SH-SY5Y = experiment: Cytotoxicity against human SH-SY5Y cells incubated for 72 hrs by MTT assay; format: functional, cell-based
HeLa [26] = experiment: Cytotoxicity against human HeLa cells assessed as increase in cell viability pretreated with Ferrostatin-1 for 4 hrs followed by compound addition at 10 uM for 24 hrs; format: functional, cell-based
A549 = experiment: Cytotoxicity against human A549 cells incubated for 72 hrs by MTT assay; format: functional, cell-based; conditions: A549, 72 h
NCI-H1355 = experiment: Cytotoxicity against human NCI-H1355 cells incubated for 72 hrs by MTT assay; format: functional, cell-based; conditions: NCI-H1355, 72 h
HeLa [27] = experiment: Cytotoxicity against human HeLa cells incubated for 72 hrs by MTT assay; format: functional, cell-based
HeLa [28] = experiment: Induction of apoptosis in human HeLa cells assessed as late apoptotic cells incubated at 8 uM for 24 hrs measured by annexin V-PI staining based FITC analysis (reference value: 1.54%); format: functional
HeLa [29] = experiment: Induction of ROS generation in human HeLa cells assessed as increase in ROS level at 10 uM incubated for 0.5 hrs (reference value: 37.8%); format: functional
HeLa [30] = experiment: Induction of apoptosis in human HeLa cells assessed as necrotic cells incubated at 10 uM for 24 hrs measured by annexin V-PI staining based FITC analysis (reference value: 1.6%); format: functional

SMILES	Activity (HeLa [1])	Activity (HeLa [3]) [%]	viability at 6 µM (HeLa [5]) [%]	IC50 (SMMC-7721) [µM]	IC50 (SK-OV-3) [µM]	Activity (HeLa [6])	IC50 (NCI-H1155) [µM]	inhibition (HeLa [9])	inhibition (HeLa [10])	inhibition (HeLa [11])	Activity (HeLa [12]) [%]	Activity (HeLa [13])	IC50 (L02) [µM]	Activity (HeLa [14]) [%]	viability at 8 µM (HeLa [15]) [%]	IC50 (HepG2) [µM]	viability at 10 µM (HeLa [18]) [%]	viability at 4 µM (HeLa [21]) [%]	inhibition (HeLa [22])	IC50 (MDA-MB-231) [µM]	further results
CCC/C=C/C=C/C(=O)O[C@@H]1C[C@H]2[C@@H](CCCC[C@H](O)CCC)CCC[C@H]2N[C@H]1C	Not toxic	~70	88.4	4.09	8.02	Dose-Dependent Effect	7.06	Active	inactive	Dose-Dependent Effect	10	Active	12.5	5	76.1	6.2	26.1	91.8	Dose-Dependent Effect	8.51	Activity [2]: Non-Toxic; Activity (HeLa [4]): 1.14%; Activity (HeLa [7]): 0.5%; Activity (HeLa [8]): 19.5%; Activity (HeLa [16]): 45.3%; Activity (HeLa [17]): 81.5%; Activity (HeLa [19]): 77.7%; Activity [20]: Non-Toxic; Activity (HeLa [23]): Active; IC50 (MCF7): 5.03 µM; Activity (HeLa [24]): 3.94%; Activity (HeLa [25]): Active; IC50 (SH-SY5Y): 5.8 µM; Activity (HeLa [26]): Not toxic; IC50 (A549): 4.68 µM; IC50 (NCI-H1355): 9.3 µM; IC50 (HeLa [27]): 2520 nM
CCCCC/C=C/C(=O)O[C@@H]1C[C@H]2[C@@H](CCCC[C@H](O)CCC)CCC[C@H]2N[C@H]1C	Not toxic	~50	65	3.93	7.94	Dose-Dependent Effect	7.88	Active	inactive	Dose-Dependent Effect	10	Active	18.7	5	52.2	6.2	45.3	91.4	Dose-Dependent Effect	8.04	Activity (HeLa [28]): 23.7%; Activity (HeLa [29]): 55.1%; Activity (HeLa [23]): Active; IC50 (MCF7): 5.95 µM; Activity (HeLa [30]): 5.06%; Activity (HeLa [25]): Active; IC50 (SH-SY5Y): 6.19 µM; Activity (HeLa [26]): Not toxic; IC50 (A549): 5.93 µM; IC50 (NCI-H1355): 8.8 µM; IC50 (HeLa [27]): 2670 nM
